# Assay results reported in patent US20100015042A1, “Combine radiation therapy and chemotherapy for treating cancer” (priority 2008, published 2010).
# Experiments:
# [1] = tested on: CT26 colon carcinoma tumors; assay: Colon carcinoma tumor growth and cure, two 224Ra wires with 5-FU; assay type: in vivo, Balb/c mice; conditions: 5-FU 75 mg/kg 24 hours prior to wires; tumors 6-7 mm in diameter
# Method: FIG. 7 is a graph showing the effect of two ^224Ra-loaded wires combined with 5-FU treatment on colon cancers. Treatment was applied to Balb/c mice bearing 6-7 mm in diameter tumors. Two ^224Ra wires: Tumor bearing mice treated with 2 ^224Ra wires, carrying activities in the range of 27.9-35.5 kBq (n=5). Two ^224Ra wires combined with 5-FU: administration of 75 mg/kg 5-FU 24 hours prior to treatment with 2 ^224Ra wires, carrying activities in the range of 32.1-33.8 kBq (n=5). Two Inert wires combined with 5-FU: administration of 75 mg/kg 5-FU 24 hours prior to treatment with 2 inert wires (n=6). Two Inert wires: Tumor bearing mice treated with 2 inert wires (n=6).
# Tumor cell inoculation: Animals were inoculated intra-cutaneously with 5·10^5 SQ2 cells in 0.2 ml HBSS or 10^5 (CT26 and Panc-02) in 0.1 ml of HBSS (Biological industries, Beit haemek, Israel) into the low lateral side of the back. Local tumor growth was determined by measuring three mutually orthogonal tumor diameters with a digital caliper (Mitutoyo, Japan). The volume of tumor was calculated using the formula: V=(π/6)·D1D2D3, where D1, D2, D3 stand for the measured diameters […]
# SQ2 cells = assay: XTT cell proliferation assay on radioactive (224Ra-implanted) microplates; assay type: cell-based, mouse
# Method: Tumors: SQ2 cell line is a murine anaplastic cell line, which was generated from a SCC tumor that has developed spontaneously in a male BALB/c mouse. Panc02 is a murine pancreatic carcinoma cell line. CT26 cells is a N-nitroso-N-methylurethane-(NNMU) induced, undifferentiated colon carcinoma cell line which was purchased from the ATCC (CRL-2638). All cells were grown in Dulbecco's Modified Eagle Medium (DMEM) supplemented with 10% Fetal Calf Serum (Biological Industries, Beit Haemek, Israel), L-glutamine (2 mM), Penicillin (100 U/ml) and Streptomycin (100 μg/ml). […]
# Cell proliferation assay: The antiproliferative effects of alpha particles and cisplatin, alone and in combination, were determined using a 3-bis (2-methoxy-4-nitro-5 sulfenyl)-(2H)-tetrazolium-5-carboxanilide (XTT) assay (Cell Proliferation Kit, Biological industries, Beit-haemek, Israel). […] After two hours of incubation, absorbance was analyzed using an automated spectrophotometer (VersaMax, Molecular Devices, USA) at 475 nm wavelength.
# SQ2 cells were plated in 96 well plates implanted with ^224Ra atoms (0, 0.02, 0.063, 0.2, 0.63 and 2 Bq/mm^2, radioactive microplates). […] Cell numbers were assessed by the XTT assay 24, 48, and 72 hrs of incubation and expressed as percent of non-treated control cells.
# [2] = tested on: lung metastases of SQ2 tumors; assay: Histological assessment of lung metastatic load; assay type: in vivo, BALB/c mice; conditions: treatment given alone, day 26, compared to inert wires
# Method: Histology: Histological analysis was performed on BALB/c mice lungs, both treated and untreated. Immediately following their removal, lungs were fixed by a 4% formaldehyde solution (Sigma, Rehovot, Israel) for at least 24 hrs. The preserved specimens were embedded in paraffin, and sections (5-10 μm) were stained with hematoxylin-eosin (H&E) (Surgipath, Richmond, USA) and analyzed for metastases detection. Metastatic burden quantification was performed by summing the gray values of all the pixels in the region of interest (ROI) divided by the number of pixels using image J free software [http://rsbdotinfodotnihdotgov/ij/].
# Histological assessment of lung sections was conducted in order to investigate the effect of the destruction of the primary tumor by DART wires on the development of metastases with or without the addition of cisplatin. Each 4 groups (Inert, ^224Ra wires, CP, CP+^224Ra wires) contained 3 animals. Animals were sacrificed at day 26 (lung metastases has been observed in this model at this time in previous studies) and lungs were harvested and processed for histological analysis and compared to normal lung tissues taken from healthy BALB/c mice. FIG. 5C describes the inhibition of lung metastatic load in mice treated with both intratumoral alpha irradiation and chemotherapy when compared to lungs of mice treated with inert wires.
# SQ2 tumors = assay: Tumor growth and survival, two 224Ra wires at the tumor base with two cisplatin doses; assay type: in vivo, BALB/c mice
# Method: Tumor cell inoculation: Animals were inoculated intra-cutaneously with 5·10^5 SQ2 cells in 0.2 ml HBSS or 10^5 (CT26 and Panc-02) in 0.1 ml of HBSS (Biological industries, Beit haemek, Israel) into the low lateral side of the back. Local tumor growth was determined by measuring three mutually orthogonal tumor diameters with a digital caliper (Mitutoyo, Japan). The volume of tumor was calculated using the formula: V=(π/6)·D1D2D3, where D1, D2, D3 stand for the measured diameters
# Wire insertion: Wires, either loaded with ^224Ra or inert, cut to a length of 5-6 mm, were placed near the tip of a 23G needle attached to a 2.5 ml syringe (Picindolor, Rome, Italy) and inserted into the tumor by a plunger placed internally along the syringe axis.
# Statistical analysis: The statistical significance (p-value) of the differences between tumor volumes in the various groups was assessed by applying Student's two-sided t-test and repeated measures ANOVA. Survival analysis (Mantel-Cox test) was carried out using Statsoft Statistica 7.0.
# The following experiment was performed in order to examine the effect of two ^224Ra wires inserted horizontally to the base of each tumor in combination with 2 doses of chemotherapy. The cisplatin was administered using the same regime as that described in Example 3.
# A pronounced difference between tumor volumes of the irradiated group (^224Ra wires) and the animals treated with Cisplatin (CP) can be seen 10 days following DART treatment. […] Moreover, when analyzing the results of the group treated with the combination of Cisplatin and ^224Ra wires, it appears that a major growth inhibition was achieved when both modalities were administrated concomitantly. […] Twenty-four days following DART treatment, the average tumor volumes of the combined treatment group was 14 fold smaller compared to the inert control group (300 mm^3 and 4286 mm^3 respectively), and 3 fold smaller compared to the best effect achieved by the radioactive wires alone (924 mm^3). […]
Structure (SMILES),No. of animals with tumors following treatment [1],"proliferation inhibition (SQ2 cells; 0.3 μM cisplatin alone, 72 hours) [%]","antiproliferative effect (SQ2 cells; 3 and 30 μM, drug alone) [%]",effect on lung metastatic burden (in words) [2],"average tumor volume, fold greater than the DART treated group (SQ2 tumors; 32 days after tumor cell inoculation, cisplatin 2 x 5 mg/kg vs two 224Ra wires) [fold]","prolongation of average survival compared to inert group (SQ2 tumors; two wires, cisplatin 2 x 5 mg/kg) [%]","mean survival (SQ2 tumors; two wires, cisplatin 2 x 5 mg/kg, inert control 43.92 days) [days]"
"O=c1[nH]cc(F)c(=O)[nH]1 [Two inert wires and 5-FU, 5-fluorouracil]",6/6 with,,,,,,
N.N.[Cl][Pt][Cl] [cisplatin],,21,> 60,decreased metastatic burden although less than the combined treatment,2.14,17,51.38
